Legend:
[1] = tested on: OCM-1 human uveal melanoma tumor in male NOD-SCID mice; assay: In vivo tumor growth inhibition, OCM-1 xenograft; parameters: species or system mouse
Description: In the next experiment, the murine xenograft melanoma model establishment studies were performed using 8–12-week-old male NOD-SCID mice. For selection of the most suitable tumor model, three cell lines were then inoculated subcutaneously, OCM-1, SK-MEL-202, and WM983A. Cells were injected in a 0.1 mL RPMI-1640 basic medium in a concentration of 1.5·× 10^6 cells/mL, and the tumor growth and weight of mice were monitored 2–3 times per week. Subsequently, the antitumor effects of the Dau–α-MSH conjugates were determined in a mouse xenograft melanoma model selected as described above. Once the tumor volume reached 60 mm^3, mice were randomized and assigned to different groups for each treatment: 0.9% saline as a control, free daunomycin, Conj2 and Conj4. Treatments were injected intraperitoneally every fifth day, three times in total (daunomycin dosage of 5 mg/kg in case of Conj2, 10 mg/kg for Conj4, respectively, which was determined based on the toxicity tests, and 1 mg/kg were used for free drug–MTD). The weight and tumor size of mice were monitored during the whole experiment. On Day 33, mice were euthanized, and the primary tumor, heart, lung, liver, and spleen were harvested and stored in 4% formalin (Molar Chemicals, Halásztelek, Hungary). Liver weight was measured for the calculation of the toxicity of conjugates and daunomycin.

[2] = tested on: WM983B human melanoma cell line; assay: In vitro antiproliferative activity, MTT assay; format: cell-based; details: for IC50: MTT assay, 0.8–100 μM in serum-free medium 24 h, then 48 h culture, mean ± SD of two or three independent experiments; for Relative Potency: ratio of IC50 values of free Dau and conjugate
Source text: (§1) The following cell cultures were used for the biological evaluation of the synthetic melanoma-specific peptide–drug (Dau–α-MSH) conjugates: A2058 (human skin melanoma, CVCL_1059), M24 (human metastatic skin melanoma, CVCL_D032), OCM-1 (human ocular choroidal melanoma-1, CVCL_6934), OCM-3 (human ocular choroidal melanoma-3, CVCL_6937), WM983A (human metastatic skin melanoma, CVCL_6808), WM983B (human metastatic skin melanoma CVCL_6809), SK-MEL-202 (human skin melanoma, ATCC HTB-68) and B16 (mouse melanoma, ATCC: CRL-6475). Cells were maintained in RPMI-1640 (Lonza, Basel, Switzerland), supplied with 10% FBS (fetal bovine serum; BioSera, Nuaille, France), L-glutamine, and 1% penicillin–streptomycin (from 10 000 units penicillin and 10 mg streptomycin/mL, Gibco, Dublin, Ireland) at 37 °C in a 5% CO2 atmosphere. No mycoplasma contamination was detected in the cell cultures.
(§2) The in vitro cytostatic effect of Dau–α-MSH conjugates was determined by two different assays. The full-length Dau–α-MSH conjugates were investigated by MTT assay using human and murine melanoma cell cultures. For determination of the cytostatic effect of these conjugates, the cells were treated with the compounds at 0.8–100 μM concentration range dissolved in the corresponding serum-free media for 24 h. After incubation, the treating solutions were removed, the cells were washed two times with serum-free medium and cultured for 48 h in the appropriate serum-containing cell culture medium. On the fourth day, the MTT assay was carried out to determine the IC50 values of the compounds. IC50 is the concentration that inhibits cell proliferation by 50%. Nonlinear regression analysis was performed with Prism 6 software (GraphPad, La Jolla, CA, USA) to generate sigmoidal dose–response curves, from which the 50% inhibitory concentration (IC50) values of the compounds were calculated and presented as micromolar (µM) units. The experiments were done in triplicate, and each experiment was repeated twice.

[3] = tested on: A2058 human melanoma cell line; assay: In vitro antiproliferative activity, MTT assay; format: cell-based; details: for IC50: MTT assay, 0.8–100 μM in serum-free medium 24 h, then 48 h culture, mean ± SD of two or three independent experiments; for Relative Potency: ratio of IC50 values of free Dau and conjugate
Source text: as §1, §2

[4] = tested on: M24 human melanoma cell line; assay: In vitro antiproliferative activity, MTT assay; format: cell-based; details: for IC50: MTT assay, 0.8–100 μM in serum-free medium 24 h, then 48 h culture, mean ± SD of two or three independent experiments; for Relative Potency: ratio of IC50 values of free Dau and conjugate
Source text: as §1, §2

[5] = tested on: B16 murine melanoma cell line; assay: In vitro antiproliferative activity, MTT assay; format: cell-based, mouse; details: for IC50: MTT assay, 0.8–100 μM in serum-free medium 24 h, then 48 h culture, mean ± SD of two or three independent experiments; for Relative Potency: ratio of IC50 values of free Dau and conjugate
Source text: as §1, §2

[6] = tested on: subcutaneous B16 murine melanoma in C57BL/6 male mice; assay: In vivo antitumor effect, subcutaneous B16 melanoma allograft; details: for Increase of animal bodyweight at the end of the experiment in comparison to the start: conjugates 10 mg Dau content/kg i.p. days 9, 13, 15, 17, free Dau 1 mg/kg days 9, 17; for Tumor growth inhibition based on tumor weight, in comparison to the control group / Animal body weight (Table S1) / Tumor weigh in % (Table S1) / Tumor volume in % (Table S1) / Tumor volume in mm3 (Table S1): conjugates 10 mg Dau content/kg; for Tumor growth inhibition based on tumor weight, in comparison to the control group / Tumor volume in percentage (start set as 100%) increased in comparison to the control group: free Dau 1 mg/kg i.p.; for Animal body weight (Table S1): change at end compared to start; for Animal body weight (Table S1) / Tumor weigh in % (Table S1): minus = decrease; for Tumor weigh in % (Table S1) / Tumor volume in % (Table S1) / Tumor volume in mm3 (Table S1): change compared to control group; for Tumor volume in % (Table S1) / Tumor volume in mm3 (Table S1): minus = inhibition; for Tumor volume in percentage (start set as 100%) increased in comparison to the control group: end of experiment, Conj1 10 mg Dau content/kg
Description: In the first experiment, B16 murine melanoma cells were subcutaneously (s.c.) injected into side of the latero-abdominal region of 35 C57BL/6 male mice (20–28 g), which murine strain is syngeneic for the B16 melanoma tumor cell line [59, 60], 6.5 ×·10^5 cells in a volume of 200 µL M199 medium was inoculated per animal. Mice were randomized in a stratified procedure considering two main factors. The primary factor was to obtain groups with the most equal tumor sizes, the secondary factor was to have groups in which the weight of mice are the most equal. The treatment started 9 days after cell inoculation when average tumor volume was 30 mm^3. Compounds were dissolved in saline solution (Teva, Debrecen, Hungary), and administered via i.p. injection in a volume of 0.1 mL per 10 g of bodyweight. […] Animal weight and tumor volumes were measured initially when the treatment started and at periodic intervals following treatment. A digital caliper was used to measure the longest (a) and the shortest diameter (b) of a given tumor. The tumor volume was calculated using the formula V = ab^2 × π/6, whereby a and b represent the measured parameters (length and width). Termination of the experiment was 20 days after cell inoculation, i.e., 12 days after treatment started, since the average volume of the tumors in the control group reached over 1800 mm^3. The mice from all groups were sacrificed by cervical dislocation after which their tumors were harvested and weighed for antitumor effect assessment. Antitumor effect of treatments was evaluated measuring the tumor volume and calculating the percentage of how much the tumor volume grew in comparison to the starting tumor volume which was set arbitrarily for all tumors as 100% at the start of treatment.

WM983B cells = assay: In vitro cytostatic effect, PrestoBlue assay; format: cell-based, human; details: Homo sapiens; WM983B; PrestoBlue; 0.003–200 μM in serum-free medium 72 h; mean ± SEM of three independent experiments
Source text: as §1
(§3) The in vitro cytostatic effect of the Dau–α-MSH conjugate with optimized sequence (Conj4) was investigated and compared with Conj2 by PrestoBlue assay using human melanoma cell cultures with different origins. For determination of the cytostatic effect of the conjugates, the cells were treated with the compounds at 0.003–200 μM concentration range dissolved in the corresponding serum-free medium for 72 h. After the treatment, the PrestoBlue assay (purchased from Invitrogen (Waltham, MA, USA) was carried out to determine the IC50 values of the compounds. Based on the IC50 values, we also determined the targeting index (TI) of the conjugates using the following equation [58]: TI=IC50neg/IC50posconjugate/IC50neg/IC50posfree drug

OCM-1 cells = assay: In vitro cytostatic effect, PrestoBlue assay; format: cell-based, human; details: Homo sapiens; OCM-1; PrestoBlue; 0.003–200 μM in serum-free medium 72 h; mean ± SEM of three independent experiments
Source text: as §1, §3

OCM-3 cells = assay: In vitro cytostatic effect, PrestoBlue assay; format: cell-based, human; details: Homo sapiens; OCM-3; PrestoBlue; 0.003–200 μM in serum-free medium 72 h; mean ± SEM of three independent experiments
Source text: as §1, §3

WM983A cells = assay: In vitro cytostatic effect, PrestoBlue assay; format: cell-based, human; details: Homo sapiens; WM983A; PrestoBlue; 0.003–200 μM in serum-free medium 72 h; mean ± SEM of three independent experiments
Source text: as §1, §3

[7] = free drug 1 mg/kg i.p., group terminated on day 28

Compound	Increase of animal bodyweight at the end of the experiment in comparison to the start ([6]; B16-bearing C57BL/6 mice)	Tumor growth inhibition based on tumor weight, in comparison to the control group ([6]; after termination (day 20))	Animal body weight (Table S1) ([6]; free Dau 1 mg/kg)	Tumor weigh in % (Table S1) ([6]; free Dau 1 mg/kg)	Tumor volume in % (Table S1) ([6]; free Dau 1 mg/kg)	Tumor volume in mm3 (Table S1) ([6]; free Dau 1 mg/kg)	Tumor volume in percentage (start set as 100%) increased in comparison to the control group [6]	IC50 [2]	Relative Potency [2]	IC50 [3]	Relative Potency [3]	IC50 [4]	Relative Potency [4]	IC50 [5]	Relative Potency [5]	further results
COc1cccc2c1C(=O)c1c(O)c3c(c(O)c1C2=O)C[C@@](O)(C(C)=O)C[C@@H]3O[C@H]1C[C@H](N)[C@H](O)[C@H](C)O1 [Dau, daunomycin, reference compound]	7.6%	17%	+7.6%	-17.0%	+58.8%	-4.9%	58.8%									Liver weight compared to the control ([1]; OCM-1-bearing NOD-SCID mice, Conj2 5 mg/kg, Conj4 10 mg/kg, daunomycin 1 mg/kg i.p., no significant toxicity): 89.79%; Normalized liver weight, value line 1 ([1]; Table S2, single animal, line 1): 4.05%; Normalized liver weight, value line 2 ([1]; Table S2, single animal, line 2): 4.31%; Normalized liver weight, value line 4 ([1]; Table S2, single animal, line 4): 4.81%; Normalized liver weight, value line 5 ([1]; Table S2, single animal, line 5): 4.07%; Normalized liver weight, value line 6 ([1]; Table S2, single animal, line 6): 4.07%; Normalized liver weight, value line 7 ([1]; Table S2, single animal, line 7): 5.29%; Normalized liver weight, line printed as "relative to ctr" ([1]; Table S2, value line 9): 5.00%; Toxicity (general condition of mice) [1, 7]: high toxicity; Tumor inhibition compared to the controls [1, 7]: lack of tumor inhibition; IC50 ([2]; Homo sapiens): 0.05 ± 0.023 µM; IC50 ([3]; Homo sapiens): 0.04 ± 0.007 µM; IC50 ([4]; Homo sapiens): 0.119 ± 0.025 µM; IC50 ([5]; Mus musculus): 0.026 ± 0.008 µM; Tumor growth inhibition based on tumor volume in mm^3, compared to control ([6]; end of experiment (day 20), conjugates 10 mg Dau content/kg i.p., free Dau 1 mg/kg): 4.9%; Animals died during the experiment ([6]; seven animals per group, B16-bearing C57BL/6 mice): 3 animals; IC50 (WM983B cells): 0.33 ± 0.05 µM; IC50 (OCM-1 cells): 0.73 ± 0.06 µM; IC50 (OCM-3 cells): 0.56 ± 0.05 µM; IC50 (WM983A cells): 0.19 ± 0.06 µM
CCCC[C@H](NC(=O)[C@H](CO)NC(=O)[C@H](Cc1ccc(O)cc1)NC(=O)[C@H](CO)NC(=O)CON=C(C)[C@]1(O)Cc2c(O)c3c(c(O)c2[C@@H](O[C@H]2C[C@H](N)[C@H](O)[C@H](C)O2)C1)C(=O)c1c(OC)cccc1C3=O)C(=O)N[C@@H](CCC(=O)O)C(=O)N[C@@H](Cc1c[nH]cn1)C(=O)N[C@@H](Cc1ccccc1)C(=O)N[C@@H](CCCNC(=N)N)C(=O)N[C@@H](Cc1c[nH]c2ccccc12)C(=O)NCC(=O)N[C@@H](CCCCNC(=O)CON=C(C)[C@]1(O)Cc2c(O)c3c(c(O)c2[C@@H](O[C@H]2C[C@H](N)[C@H](O)[C@H](C)O2)C1)C(=O)c1c(OC)cccc1C3=O)C(=O)N1CCC[C@H]1C(=O)N[C@H](C(N)=O)C(C)C [Conj3, Dau=Aoa-SYSNleEHFRWGK(Dau=Aoa)PV-NH2]	18.2%		+18.2%	+9.2%	-14.7%	+12.3%		3.6 ± 0.2 µM	0.0138	3 ± 0.8 µM	0.0133	11 ± 0.8 µM	0.0108	2 ± 0.7 µM	0.0130	Tumor weight increased in comparison to the control ([6]; after termination (day 20), 10 mg Dau content/kg i.p.): 9.2%; Average tumor volume (mm^3) higher compared to the control group ([6]; end of experiment (day 20), 10 mg Dau content/kg i.p.): 12.3%
CCCC[C@H](NC(=O)[C@H](CO)NC(=O)[C@H](Cc1ccc(O)cc1)NC(=O)[C@H](CO)NC(=O)CON=C(C)[C@]1(O)Cc2c(O)c3c(c(O)c2[C@@H](O[C@H]2C[C@H](N)[C@H](O)[C@H](C)O2)C1)C(=O)c1c(OC)cccc1C3=O)C(=O)N[C@@H](CCC(=O)O)C(=O)N[C@@H](Cc1c[nH]cn1)C(=O)N[C@@H](Cc1ccccc1)C(=O)N[C@@H](CCCNC(=N)N)C(=O)N[C@@H](Cc1c[nH]c2ccccc12)C(=O)NCC(=O)N[C@@H](CCCCN)C(=O)N1CCC[C@H]1C(=O)N[C@H](C(N)=O)C(C)C [Conj1, Dau=Aoa-SYSNleEHFRWGKPV-NH2]	12.9%	2.4%	+12.9%	-2.4%	+9.7%	-23.8%	9.7%	9.9 ± 1.5 µM	0.0050	9.8 ± 5.4 µM	0.0041	12.8 ± 1.6 µM	0.0093	2.9 ± 0.6 µM	0.0090	
